From US11351178B2, “Selective HDAC6 inhibitors” (ITALFARMACO S.P.A., priority 2017, dated 2022) come the findings set out here.

Like-named read-outs stand apart in the source and are kept apart here.

Assay [1] has as its target T1, HDAC7 (Homo sapiens, UniProt Q8WUI4).
T1 construct: purchased BPS 50007
T1 sequence (Q8WUI4 518-952 limits assumed): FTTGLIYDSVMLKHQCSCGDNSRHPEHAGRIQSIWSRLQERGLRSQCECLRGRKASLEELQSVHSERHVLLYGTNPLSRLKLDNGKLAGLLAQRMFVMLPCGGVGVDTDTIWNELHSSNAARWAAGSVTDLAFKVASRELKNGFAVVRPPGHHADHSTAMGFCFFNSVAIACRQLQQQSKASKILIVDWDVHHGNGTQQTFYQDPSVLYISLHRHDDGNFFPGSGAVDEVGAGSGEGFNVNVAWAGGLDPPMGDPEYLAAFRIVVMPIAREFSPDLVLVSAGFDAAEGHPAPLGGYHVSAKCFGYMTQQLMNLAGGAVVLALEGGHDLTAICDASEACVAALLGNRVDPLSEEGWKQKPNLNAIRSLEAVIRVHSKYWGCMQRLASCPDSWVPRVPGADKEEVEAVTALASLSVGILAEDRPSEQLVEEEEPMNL
The assay is described as follows: Enzymatic test HDAC7. As to conditions: Table 3. Format: biochemical. How it is done: (§1) After a period of incubation at 30° C. (incubation times vary for different isoforms and are shown in table 1) 25 μL of solution containing the substrate were added. As substrate, FLUOR DE LYS® deacetylase substrate (Enzo Life Sciences, cat #BML-K1104, FdL), FLUOR DE LYS®-Green substrate (Enzo Life Sciences, cat #BML-K1572 FdL_G) and trifluoroacetyl-L-lysine (Tfal)-2× concentrated solution in 25 mM Tris-HCl, pH 8, 130 mM NaCl 0.05% Tween-20 10% glycerol) were used. Following a reaction period at 30° C.

For assay [2], the target named is T2, recombinant human HDAC3 (Homo sapiens, UniProt O15379).
T2 construct: purchased BPS 50003
T2 sequence (O15379 whole entry): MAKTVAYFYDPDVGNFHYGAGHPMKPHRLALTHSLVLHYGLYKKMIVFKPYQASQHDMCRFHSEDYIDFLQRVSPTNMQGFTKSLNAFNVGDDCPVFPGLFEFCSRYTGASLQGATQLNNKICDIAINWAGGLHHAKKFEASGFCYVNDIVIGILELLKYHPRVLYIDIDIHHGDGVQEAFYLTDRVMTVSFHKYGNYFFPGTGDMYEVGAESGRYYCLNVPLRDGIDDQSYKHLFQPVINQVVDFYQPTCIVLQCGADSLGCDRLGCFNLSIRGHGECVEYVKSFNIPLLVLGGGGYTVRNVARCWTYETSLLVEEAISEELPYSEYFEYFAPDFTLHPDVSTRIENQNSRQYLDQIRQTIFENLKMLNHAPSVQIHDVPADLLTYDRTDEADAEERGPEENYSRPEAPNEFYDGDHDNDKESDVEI
T2 sequence (Q9Y618 395-489 partner limits assumed): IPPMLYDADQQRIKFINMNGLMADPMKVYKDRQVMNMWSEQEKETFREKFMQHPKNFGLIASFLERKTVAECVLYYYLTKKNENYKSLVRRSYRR
The experiment in a line: Enzymatic screening on recombinant human HDAC3. Format: biochemical. Particulars: Table 3. How it is done:
Enzymatic activity on recombinant human HDAC6 and HDAC3 was evaluated (Table 2) for each synthesized compound.
as §1

Assay [3] has as its target T3, HDAC9 (Homo sapiens, UniProt Q9UKV0).
T3 construct: purchased BPS 50009
The assay is described as follows: Enzymatic test HDAC9. As to conditions: Table 3. Format: biochemical. How it is done: as §1

Assay [4] relates to human PBMCs. The assay is described as follows: Mixed Lymphocytes Reaction (MLR) with human PBMCs (IFN-γ, TNF-α, IL-6). Type of assay: cell-based. Particulars: PBMC, 144 h, two-way MLR, 6 days, negative = induction; for inhibition at […]: 0.25 μM. How it is done:
In order to study HDAC6 inhibitors ability to inhibit the activation of allogenic T CD4+ cells, a Mixed Lymphocytes Reaction (MLR or mixed lymphocyte culture, CLM) assay was performed. This is a reaction involving blast transformation of in vitro cultured lymphocytes in the presence of allogeneic lymphocytes. There is the so-called “two-way” reaction wherein the two lymphocyte populations stimulate each other to proliferate, and the so-called “one way” reaction, wherein the proliferation of one of the two populations is inhibited by mitomycin C or irradiation, these cells provide proliferation stimulus (stimulator) to the so-called “responder” cells.
Human peripheral blood mononuclear cells (PBMCs) used in MLR were obtained by Ficoll gradient separation from Buffy Coat of healthy donors.
We used a two-way MLR. The cells from the two donors were plated at 1:1 ratio (allogenic stimulation) to the final concentration of 2×10^5 per well in U-bottom 96 well plates in RPMI 1640 medium with 10% FBS and antibiotics. As a control we individually plated the cells from each donor (singenic stimulus). The experiment for each inhibitor was set in deduplicate for allogeneic stimuli and in quintuplicate for singenic stimuli. The cells were cultured for 6 days in an incubator at 37° C.
After 6 days the effect of the test compounds was evaluated by measuring the production of pro-inflammatory cytokines recognized to be characteristics of this assay.
For this purpose, the culture supernatant was harvested and used for IFN-γ, TNF-α and IL-6 inflammatory cytokine assay.
The JAK inhibitor ruxolitinib was used as the active reference compound in the test.
Values in the table indicate the inhibition percentages. Negative values indicate an induction.

Assay [5] addresses T4, HDAC4 (Homo sapiens, UniProt P56524).
T4 construct: purchased BPS 50004
The experiment in a line: Enzymatic test HDAC4. Format: biochemical. Particulars: Table 3. On the procedure:
as §1

[6] abbreviates: read-out: MLR IFN-γ inhibition percentage.
Setting [7] is: read-out: MLR IL-6 inhibition percentage.
Setting [8] is: read-out: MLR TNF-α inhibition percentage.

T3 sequence (Q9UKV0 1-1066 isoform Q9UKV0-5): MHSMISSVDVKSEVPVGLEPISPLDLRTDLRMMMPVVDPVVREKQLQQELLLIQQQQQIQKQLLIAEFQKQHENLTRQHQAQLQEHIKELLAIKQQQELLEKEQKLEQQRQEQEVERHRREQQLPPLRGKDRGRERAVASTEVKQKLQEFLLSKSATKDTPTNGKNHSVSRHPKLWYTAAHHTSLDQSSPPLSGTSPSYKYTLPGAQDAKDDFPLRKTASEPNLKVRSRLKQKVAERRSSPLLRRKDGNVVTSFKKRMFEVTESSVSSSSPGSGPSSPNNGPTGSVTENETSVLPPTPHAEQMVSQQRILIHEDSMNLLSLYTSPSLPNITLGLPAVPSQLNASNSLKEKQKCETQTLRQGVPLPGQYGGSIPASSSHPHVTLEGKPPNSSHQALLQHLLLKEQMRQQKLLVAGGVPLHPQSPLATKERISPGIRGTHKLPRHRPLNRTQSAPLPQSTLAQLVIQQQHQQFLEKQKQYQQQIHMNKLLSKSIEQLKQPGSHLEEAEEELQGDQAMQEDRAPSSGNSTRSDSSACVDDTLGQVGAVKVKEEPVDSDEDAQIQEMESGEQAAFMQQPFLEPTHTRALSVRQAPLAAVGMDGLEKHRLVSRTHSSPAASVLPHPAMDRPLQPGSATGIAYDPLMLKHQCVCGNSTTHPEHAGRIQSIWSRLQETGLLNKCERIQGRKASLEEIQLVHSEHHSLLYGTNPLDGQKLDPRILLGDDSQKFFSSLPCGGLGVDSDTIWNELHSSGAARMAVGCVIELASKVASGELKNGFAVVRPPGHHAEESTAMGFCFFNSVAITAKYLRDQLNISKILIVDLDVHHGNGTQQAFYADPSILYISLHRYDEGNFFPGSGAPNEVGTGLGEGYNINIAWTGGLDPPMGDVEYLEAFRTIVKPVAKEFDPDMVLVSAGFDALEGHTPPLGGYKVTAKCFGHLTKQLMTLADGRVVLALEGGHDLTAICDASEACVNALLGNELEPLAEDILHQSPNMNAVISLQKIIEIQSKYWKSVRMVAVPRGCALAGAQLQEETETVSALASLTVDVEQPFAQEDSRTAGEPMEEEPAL
T4 sequence (P56524 627-1084 limits assumed): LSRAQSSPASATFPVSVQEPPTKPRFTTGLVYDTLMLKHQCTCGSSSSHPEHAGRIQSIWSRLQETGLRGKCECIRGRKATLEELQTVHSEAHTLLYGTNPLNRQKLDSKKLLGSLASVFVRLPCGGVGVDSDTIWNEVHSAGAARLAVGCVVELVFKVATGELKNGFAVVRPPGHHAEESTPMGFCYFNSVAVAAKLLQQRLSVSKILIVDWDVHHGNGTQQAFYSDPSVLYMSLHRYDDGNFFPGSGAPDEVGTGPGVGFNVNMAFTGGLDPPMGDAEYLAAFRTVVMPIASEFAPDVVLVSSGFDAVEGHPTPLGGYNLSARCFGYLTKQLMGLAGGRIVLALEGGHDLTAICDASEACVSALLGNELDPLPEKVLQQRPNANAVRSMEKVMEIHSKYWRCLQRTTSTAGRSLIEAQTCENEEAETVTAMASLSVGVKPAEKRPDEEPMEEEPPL

Turning to `CCN(CC)S(=O)(=O)c1cccc(-c2nnc(Sc3ccc(C(=O)NO)cc3)n2C)c1` [comp. 66, 4-[[5-[3-(diethylsulfamoyl)phenyl]-4-methyl-1,2,4-triazol-3-yl]sulfanyl]benzenecarbohydroxamic acid], the IC50 in assay [1] came to 214 nM; in assay [2], 921 nM; in assay [3] it was 168 nM; in assay [5], 481 nM. Further, the values for the inhibition at 1 µM in assay [4] (setting [6]), in assay [4] (setting [7]) and in assay [4] (setting [8]) were 53%, 12.9% and 42.8%, respectively.
For `Cn1c(Sc2c(F)cc(C(=O)NO)cc2F)nnc1-c1cccs1` [comp. 17, 3,5-difluoro-N-hydroxy-4-((4-methyl-5-(thiophen-2-yl)-4H-1,2,4-triazol-3-yl)thio)benzamide], the half-inhibitory concentration (IC50) worked out at 550 nM in assay [1], 2830 nM in assay [2], 496 nM in assay [3] and 1390 nM in assay [5]. The figures for the inhibition at 1 µM in assay [4] (setting [6]), in assay [4] (setting [7]) and in assay [4] (setting [8]) were 41.6%, 31.2% and 39.4%, respectively.
With `O=C(NO)c1cc(F)c(Cn2nnc(-c3scc4c3OCCO4)n2)c(F)c1` [comp. 79, 4-[[5-(2,3-dihydrothieno[3,4-b][1,4]dioxin-5-yl)tetrazol-2-yl]methyl]-3,5-difluoro-benzenecarbohydroxamic acid], the 50% inhibitory concentration (IC50) in assay [1] was found to be 1310 nM; in assay [2] it was 1650 nM; in assay [3] it was 514 nM; in assay [5] it was 541 nM. For the same compound, the inhibition at 1 µM in assay [4] (setting [6]) was 27.5%; in assay [4] (setting [7]), 38.6%; in assay [4] (setting [8]) it was 50.9%.
As to `Nn1c(Sc2ccc(C(=O)NO)cc2)nnc1-c1ccc(OC(F)F)cc1` [comp. 28, 4-[[4-amino-5-[4-(difluoromethoxy)phenyl]-1,2,4-triazol-3-yl]sulfanyl]benzenecarbohydroxamic acid], the IC50 in assay [1] is 1030 nM; in assay [2], 373 nM; in assay [3], 328 nM; in assay [5] it was 1330 nM.
The matching figures for `COc1ccc(C(=O)N[C@@H](Cc2cscn2)c2nc(Cc3ccc(C(=O)NO)cc3)no2)cc1OC` [comp. 1, (S)—N-(1-(3-(4-(hydroxycarbamoyl)benzyl)-1,2,4-oxadiazol-5-yl)-2-(thiazol-4-yl)ethyl)-3,4-dimethoxybenzamide]: 3530 nM, 2870 nM, 5870 nM and 10100 nM.
The matching figures for `CN(C)c1cccc(-c2nnc(Sc3c(F)cc(C(=O)NO)cc3F)n2C)c1` [comp. 80, 4-[[5-[3-(dimethylamino)phenyl]-4-methyl-1,2,4-triazol-3-yl]sulfanyl]-3,5-difluoro-benzenecarbohydroxamic acid]: 764 nM, 1870 nM, 426 nM and 731 nM.
In the same order, the values of `Cn1c(Sc2c(F)cc(C(=O)NO)cc2F)nnc1-c1cccc2ccccc12` [comp. 2, 3,5-difluoro-N-hydroxy-4-((4-methyl-5-(naphthalen-1-yl)-4H-1,2,4-triazol-3-yl)thio)benzamide] are 1090 nM, 8650 nM, 592 nM and 1460 nM.
As to `Cn1c(Sc2ccc(C(=O)NO)cc2)nnc1-c1cccs1` [comp. 10, N-hydroxy-4-((4-methyl-5-(thiophen-2-yl)-4H-1,2,4-triazol-3-yl)thio)benzamide], the half-inhibitory concentration (IC50) in assay [1] was 817 nM; in assay [2], 487 nM; in assay [3], 1080 nM; in assay [5] it was 2500 nM. Moreover, the inhibition at 1 µM is 25.6% in assay [4] (setting [6]), 20.6% in assay [4] (setting [7]) and 49.4% in assay [4] (setting [8]).
Turning to `O=C(NO)c1ccc(Cc2nnc(-c3ccc(F)cc3F)o2)cc1` [comp. 58, 4-((5-(2,4-difluorophenyl)-1,3,4-oxadiazol-2-yl)methyl)-N-hydroxybenzamide], the IC50 in assay [1] came out at 1510 nM; in assay [2], 206 nM; in assay [3], 2170 nM; in assay [5], 3930 nM.
As for `O=C(NO)c1ccc(Cn2nnc(-c3cccs3)n2)cc1` [comp. 50, 4-[[5-(2-thienyl)tetrazol-2-yl]methyl]benzenecarbohydroxamic acid], the IC50 in assay [1] worked out at 611 nM; in assay [2], 154 nM; in assay [3] it was 800 nM; in assay [5], 1950 nM.
The matching figures for `O=C(NO)c1ccc(Cn2nnc(-c3ccc(C(F)(F)F)cc3)n2)cc1` [comp. 23, 4-[[5-[4-(trifluoromethyl)phenyl]tetrazol-2-yl]methyl]benzenecarbohydroxamic acid]: 6670 nM, 568 nM, 2690 nM and 4240 nM.
Take `O=C(NO)c1ccc(Cn2nnnc2-c2cccs2)cc1` [comp. 8, N-hydroxy-4-((5-(thiophen-2-yl)-1H-tetrazol-1-yl)methyl)benzamide]: in assay [4] (setting [6]), the inhibition at […] is 24.1%, the inhibition at 0.5 µM came to 35.3% and the inhibition at 1 µM stood at 15.7%. Further, in assay [4] (setting [7]), the inhibition at […] was -33.1%, the inhibition at 0.5 µM is -13% and the inhibition at 1 µM was -1.5%. In assay [4] (setting [8]), the inhibition at […] came to 54.7%, the inhibition at 0.5 µM was 35.1% and the inhibition at 1 µM is 28.1%.
`Cn1c(Sc2c(F)cc(C(=O)NO)cc2F)nnc1C(c1ccccc1)c1ccccc1` [comp. 98, 4-[(5-benzhydryl-4-methyl-1,2,4-triazol-3-yl)sulfanyl]-3,5-difluoro-benzenecarbohydroxamic acid]: the IC50 in assay [1] was 1990 nM; in assay [2] it was 8930 nM; in assay [3] it was 844 nM; in assay [5] it was 1610 nM.
With `O=C(NO)c1cc(F)c(Cn2nnnc2-c2cccs2)c(F)c1` [comp. 15, 3,5-difluoro-N-hydroxy-4-((5-(thiophen-2-yl)-1H-tetrazol-1-yl)methyl)benzamide], the IC50 in assay [2] came to 6290 nM; in assay [3] it was 659 nM; in assay [5], 660 nM. Further, the inhibition at 1 µM in assay [4] (setting [6]) turned out to be 21%; in assay [4] (setting [7]), 22.9%; in assay [4] (setting [8]), 33.9%.
Regarding `O=C(NO)c1ccc(Cn2nnc(-c3ccccc3F)n2)cc1` [comp. 33, 4-[[5-(2-fluorophenyl)tetrazol-2-yl]methyl]benzenecarbohydroxamic acid], the half-maximal inhibitory concentration (IC50) turned out to be 608 nM in assay [1], 138 nM in assay [2], 948 nM in assay [3] and 1910 nM in assay [5].
Regarding `CN(C)S(=O)(=O)c1cccc(-c2nnn(Cc3ccc(C(=O)NO)cc3)n2)c1` [comp. 59, 4-[[5-[3-(dimethylsulfamoyl)phenyl]tetrazol-2-yl]methyl]benzenecarbohydroxamic acid], the 50% inhibitory concentration (IC50) in assay [1] turned out to be 820 nM; in assay [2], 448 nM; in assay [3], 1540 nM; in assay [5], 2490 nM.

Broadly, the IC50 is the concentration that inhibits the measured activity by half. As usually defined, the inhibition is the relative decrease from the control value, in per cent.
